We go through nine compounds from the supplement of paper PMC7840683.

± gives the standard deviation of the averaged measurements.

This experiment deals with HepaRG. Briefly: LDH release cytotoxicity, % of total lysis control; higher = more cytotoxic. The conditions noted are these: 48 h. Summed up:
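Duplicate wells of single-lot HepaRG cells, grown on collagen I-coated 96-well plates, received eight-point half-log series of test chemicals with 100 µM as the top concentration. Exposure lasted 48 h in serum-free induction medium with 0.5% DMSO, while total lysis wells received 0.1% Triton X. Resorufin fluorescence (CytoTox-ONE, Tecan Safire) was used to quantify LDH leaked into 50 µL of spent medium. Values for percent cytotoxicity were normalized to on-plate vehicle and total lysis controls and averaged across the duplicates.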

`OC(c1ccc(Cl)cc1)(c1ccc(Cl)cc1)C(Cl)(Cl)Cl` [Dicofol]: the LDH release cytotoxicity is -4.47 ± 0.11% (0.03162 µM); -4.19 ± 0.15% (0.1 µM); -3.36 ± 1.2% (0.3162278 µM); -3.88 ± 0.76% (1 µM); -3.71 ± 1.1% (3.16228 µM); -3.02 ± 0.35% (10 µM). The LDH release cytotoxicity was -3.41 ± 0.081% (31.6228 µM) and -0.0654 ± 3% (100 µM).
In the case of `COS(C)(=O)=O` [Methyl methanesulfonate], the LDH release cytotoxicity reads like this: (0.03162 µM) -1.45 ± 0.74%; (0.1 µM) -1.11 ± 0.35%; (0.3162278 µM) -1.7 ± 0.1%; (1 µM) -0.993 ± 1.2%; (3.16228 µM) -1.33 ± 0.4%; (10 µM) -1.07 ± 0.89%. Further, the LDH release cytotoxicity (31.6228 µM) is -1.15 ± 0.067% and the LDH release cytotoxicity (100 µM) turned out to be 0.825 ± 0.66%.
On to `O=C(NS(=O)(=O)C=Cc1cccs1)c1ccc(F)cc1Br`, for which the LDH release cytotoxicity was -1.33 ± 0.59% (0.03162 µM); -1.47 ± 0.055% (0.1 µM); -1.39 ± 0.25% (0.3162278 µM); -2.27 ± 0.8% (1 µM); -1.8 ± 0.55% (3.16228 µM); -1.418 ± 0.0065% (10 µM). Besides, the LDH release cytotoxicity by setting is: (31.6228 µM) -0.73 ± 0.11%; (100 µM) -0.319 ± 0.11%.
Consider `O=C(O)CN(CC(=O)O)CC(=O)O` [Nitrilotriacetic acid], for which the LDH release cytotoxicity reads like this: (0.03162 µM) -0.992 ± 1.1%; (0.1 µM) -2.54 ± 0.17%; (0.3162278 µM) -2.46 ± 0.55%; (1 µM) -2.18 ± 1.1%; (3.16228 µM) -1.64 ± 0.13%; (10 µM) -2.38 ± 0.72%. In addition, the LDH release cytotoxicity is -1.51 ± 0.34% (31.6228 µM) and -0.286 ± 0.059% (100 µM).
Regarding `CNC(=O)ON=C(SC)C(=O)N(C)C` [Oxamyl], the LDH release cytotoxicity is, setting by setting: (0.03162 µM) -0.761 ± 0.13%; (0.1 µM) -0.802 ± 0.67%; (0.3162278 µM) -1.45 ± 0.73%; (1 µM) -1.85 ± 0.63%; (3.16228 µM) -1.65 ± 0.22%; (10 µM) -1.06 ± 0.34%. The LDH release cytotoxicity by setting is: (31.6228 µM) -1.05 ± 0.48%; (100 µM) -1.42 ± 0.44%.
In the case of `COc1ccc2cc(S(=O)(=O)NC(CC(=O)NC(Cc3ccc(CN4C(C)CCCC4C)cc3)C(=O)N(C)C(C)C)c3ccc4c(c3)OCO4)ccc2c1` (configuration not stated), the LDH release cytotoxicity (0.0301998 µM) is -0.793 ± 0.59%; the LDH release cytotoxicity (0.0955 µM) was -1.98 ± 1.2%; the LDH release cytotoxicity (0.301997 µM) is -1.26 ± 0.36%; the LDH release cytotoxicity (0.955 µM) was -1.65 ± 0.66%; the LDH release cytotoxicity (3.01998 µM) is -1.13 ± 0.075%; the LDH release cytotoxicity (9.55 µM) came to 1.45 ± 0.6%. The LDH release cytotoxicity by setting is: (30.199752 µM) 70.28 ± 0.7%; (95.5 µM) 80.2 ± 1%.
On to `Oc1ccc(O)cc1` [Hydroquinone], for which the LDH release cytotoxicity (0.03162 µM) was 0.852 ± 2.2%; the LDH release cytotoxicity (0.1 µM) was -0.606 ± 1%; the LDH release cytotoxicity (0.3162278 µM) is -1.09 ± 0.16%; the LDH release cytotoxicity (1 µM) is -0.745 ± 0.076%; the LDH release cytotoxicity (3.16228 µM) is -0.483 ± 0.15%; the LDH release cytotoxicity (10 µM) was -0.0561 ± 0.24%. In addition, the LDH release cytotoxicity is, setting by setting: (31.6228 µM) -0.947 ± 0.53%; (100 µM) -1.615 ± 0.013%.
`Oc1ccccc1O` [1,2-Benzenediol]: the LDH release cytotoxicity (0.03162 µM) was -1.86 ± 1.3%; the LDH release cytotoxicity (0.1 µM) was -1.713 ± 0.01%; the LDH release cytotoxicity (0.3162278 µM) is -1.94 ± 0.18%; the LDH release cytotoxicity (1 µM) is -2.41 ± 0.4%; the LDH release cytotoxicity (3.16228 µM) is -2.9 ± 0.69%; the LDH release cytotoxicity (10 µM) was -2.31 ± 0.29%. Also, the LDH release cytotoxicity (31.6228 µM) is -1.42 ± 0.88% and the LDH release cytotoxicity (100 µM) was -0.0267 ± 0.61%.
As to `CS(=O)(=O)c1cc(C(F)(F)F)ccc1C(=O)c1cnoc1C1CC1` [Isoxaflutole], the LDH release cytotoxicity by setting is: (0.03162 µM) -0.368 ± 0.91%; (0.1 µM) -1.2 ± 0.74%; (0.3162278 µM) -2.1 ± 0.12%; (1 µM) -1.58 ± 1.2%; (3.16228 µM) -0.928 ± 1.1%; (10 µM) -0.455 ± 0.32%. Besides, the LDH release cytotoxicity runs as follows: (31.6228 µM) -0.687 ± 0.2%; (100 µM) 0.934 ± 0.86%.
